Like-named read-outs stand apart in the source and are kept apart here.
Legend:
[1] = tested on: receptor tyrosine kinases; experiment: Receptor tyrosine kinases safety profile; format: biochemical; parameters: dose or concentration left out as unconfirmed
Experimental: (§1) These kinases or enzymatic assays were performed by MDS according to the standardized methods

[2] = tested on: human platelet suspension; experiment: Thromboxane B2 formation in human platelet suspension; format: cell-based
Experimental: Human platelet suspension (3.75×10^8/ml) was preincubated in the presence or absence of nstpbp5185 or aspirin for 3 min before the addition of collagen or AA. Six minutes after the addition of agonist, […] indomethacin and 2 mM EDTA were added to the reaction suspension. After centrifugation in an Eppendorf centrifuge at 14,000 g for 2 min, the thromboxane B2 (TXB2), the stable metabolite of TXA2, levels of the supernatant were measured using a competitive enzyme-immuno assay (EIA) kit according to the instructions of the manufacturer.

[3] = tested on: human platelet suspension; experiment: U46619-induced platelet aggregation in human platelet suspension; format: cell-based; settings: for IC50: Homo sapiens; for shift of the concentration-response curve of U46619: nstpbp5185 2 and 3 μM with indomethacin, Ctkf6f2 1 μM; for U46619 needed to induce the full aggregation: platelets pretreated with 1 μM compound
[4] = tested on: rat carotid artery; experiment: Balloon-injury rat carotid artery model (neointima formation); format: in vivo; settings: 1 or 2 mg/kg/day intraperitoneally for 2 weeks; rats
Experimental: We used the established rat carotid artery (CA) model of balloon angioplasty to examine the in vivo arterial response to injury^20. Briefly, male Wistar rats weighing 350-400 g were anesthetized with intraperitoneal pentobarbital (50 mg/kg), and the left CA was exposed. A Fogarty 2F embolectomy balloon catheter was inserted into the left external carotid artery through arteriotomy incision and advanced to the aortic arch. The balloon was inflated and withdrawn three times with rotation at the same pressure. Followed by removal of the catheter, the external carotid artery was ligated and the wound closed. Animals were given standard rat chow and tap water, and i.p. administered 1 and 2 mg/kg or vehicle daily for 2 weeks, at which time they were sacrificed, and the sections from both the right and left (collateral control group) CA were harvested to fix with 4% paraformaldehyde in PBS overnight for study. All procedures involving animal experiments were approved by the Institutional Animal Care and Use Committee of Collagen of Medicine, National Taiwan University.
We further determined the inhibitory effect of nstpbp5185 on neointima formation after carotid artery injury. […] (FIG. 16G) Data are quantified by the neointima/media ratio of common carotid arteries after balloon injury. […]

[5] = target: T1, Thromboxane synthase (Homo sapiens, UniProt P24557); experiment: Thromboxane synthase activity (Table III comparison); format: biochemical
T1 construct: MDS
T1 sequence (P24557 1-533): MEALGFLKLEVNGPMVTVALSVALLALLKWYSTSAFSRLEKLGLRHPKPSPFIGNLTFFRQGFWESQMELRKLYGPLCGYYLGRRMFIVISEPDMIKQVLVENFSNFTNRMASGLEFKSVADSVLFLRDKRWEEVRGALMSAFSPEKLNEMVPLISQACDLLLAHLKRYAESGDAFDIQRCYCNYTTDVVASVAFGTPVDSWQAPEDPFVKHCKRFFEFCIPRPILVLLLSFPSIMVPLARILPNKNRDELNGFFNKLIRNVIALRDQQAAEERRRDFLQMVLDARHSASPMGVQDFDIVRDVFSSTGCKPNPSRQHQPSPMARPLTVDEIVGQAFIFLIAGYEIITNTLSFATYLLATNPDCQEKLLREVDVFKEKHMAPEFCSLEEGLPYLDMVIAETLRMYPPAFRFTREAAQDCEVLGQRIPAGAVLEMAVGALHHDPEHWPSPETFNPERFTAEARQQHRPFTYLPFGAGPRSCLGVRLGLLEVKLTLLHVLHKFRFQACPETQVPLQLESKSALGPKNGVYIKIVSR
Experimental: as §1

[6] = Homo sapiens, Platelet, collagen 10 μg/ml, read-out: inhibition of TXB2 compared to the control
[7] = Platelet, U46619 1 μM, washed human platelets, read-out: IC50 U46619-induced aggregation

| Compound | effects on receptor tyrosine kinases [1] | inhibition at 0.3 µM ([2]; Homo sapiens, Platelet, collagen 10 μg/ml, 0.3 μM, read-out: inhibition of TXB2 compared to the control) [%] | inhibition at 1 µM [2, 6] [%] | inhibition at 3 µM ([2]; Homo sapiens, Platelet, collagen 10 μg/ml, 3 μM, read-out: inhibition of TXB2 compared to the control) [%] | inhibition at 10 µM ([2]; Homo sapiens, Platelet, collagen 10 μg/ml, 10 μM, read-out: inhibition of TXB2 compared to the control) [%] | IC50 [3, 7] [nM] | inhibition at 1 µM ([3]; Platelet, human washed platelets, 1 μM compound, U46619 1 μM) [%] | shift of the concentration-response curve of U46619 [3] | U46619 needed to induce the full aggregation [3] | TXB2 generation of AA-stimulated platelets ([2]; arachidonic acid 200 μM, 0.7, 2 and 6 μM) | TXB2 generation of collagen-stimulated platelets ([2]; collagen 10 μg/ml, 0.7, 2 and 6 μM) | IC50 ([3]; Platelet, U46619-induced aggregation, platelet suspension, read-out: P.S(U46619) IC50) [nM] | inhibition of aggregation induced by U46619 ([3]; human washed platelets, 1 μM compound, U46619 1 μM) | N/M ratio (neointima/media) [4] | Thromboxane synthase ([5]; Table III arrows) | IC50 ([5]; read-out: Thromboxane synthase inhibition IC50) [nM] |
| --- | --- | --- | --- | --- | --- | --- | --- | --- | --- | --- | --- | --- | --- | --- | --- | --- |
| Cc1ccc(-c2nc3ccc(F)cc3n2Cc2cccc(F)c2)o1 [Ctkf6f2, 6-fluoro-1-(3-fluorobenzyl)-2-(5-methyl-2-furyl)benzimidazole] | little effects | 33 | 43.9 | 64.7 | 73.5 | 1170 ± 230 | 50 | right-shift | around 2 μM |  |  |  |  |  |  |  |
| Cc1ccc(-c2nc3ccccc3n2Cc2ccccc2)o1 [Example 6, 1-Benzyl-2-(5-methyl-2-furyl)benzimidazole] | little effects |  | 52.6 |  |  | ~2500 |  | right-shift | 0.5 µM | concentration-dependently inhibited | concentration-dependently inhibited | 2450 | could not effectively inhibit | significantly inhibited | ↓ | 10000 |
